Assay results as given in patent publication US12012415B2, “Compositions and methods for the diagnosis, treatment and prevention of neoplastic and neurological disorders” (AscentGene, Inc., priority 2018, dated 2024).

Experiments:
[1] = test system: U251 cells; experiment: Cell viability, combination with TMZ in U251 cells; format: cell-based, human
Procedure: (§1) Human glioma cell lines of U251, SF539, SF295 were obtained from NCI/DTP and U87 was obtained from ATCC. U251, SF539, and SF295 cells were grown in RPMI (Gibco) medium; U87 cells were grown in EMEM medium (ATCC), all the cells culture media containing 10% FBS and 100 unit/ml of Penicillin-Streptomycin, and cells were incubated in a 37 °C/5% CO2 humidified hood. One day before chemical compounds treatment, four kinds of cells U251, SF539, SF295, and U87 were seeded in 96-well plates at 10,000 cells/well (100 μl) with triplicate. The culture medium was removed and cells were treated with a series different concentration of AG1601/in correspond fresh media. Following an additional incubation of 48 hours at 37° C./5% CO2, cells proliferation assay was performed with Cell Counting Kit-8 (Dojindo Laboratories, #CK04), added 10 μl of reagent to the cells in each well after replacing with 100 μl of fresh media, mix well, following an additional 2 to 3 hours incubation at 37° C./5% CO2, read wavelengths of OD450 nm in a 96-well plate reader (Victor 2, 1420 Multilabel counter), data analysis were performed with Excel and it is platted as relative mean OD450 nm+/−standard error of the mean.
(§2) Cells were treated with indicated content of AG-1601 for 48 hours, then followed by performance of cell viability assays. […]

[2] = test system: C6 glioma; experiment: C6 intracranial glioma rat model; format: in vivo, rats
Procedure: SD male rate were intracranially injected with DMEM medium in 10 μl (sham and small plus AG-1601), and C6 cell at 1×10^6 in 10 μl (glioma and glioma plus AG-1601). C6 cells, a type of murine glioma cell lines, were injected into the right striatum in rats to induce glioma formation. C6 cells were cultured in DMEM containing 10% FBS. C6 cells were suspended in DMEM to implant in rats. Rats injected DMEM containing 10% FBS were grouped as Sham. Tumor formation continued for 7 days, followed by AG1601 was intravenous injected once a day for 6 days. Physical findings included: body weight/2d; effects on synaptic plasticity; electrophysiological tests of LTP and CA3-CA1; mechanism of the study (BDNF/TrkB signaling pathway); Western blot; Synaptic plasticity: BDNF/TrkB/PI3K/Akt/NMDA/PSD95/SYP; Tumor suppression: BDNF/TrkB/RAS/ERK/Bcl-2/Bax; Histology and immunohistochemical analysis; HE staining and immunohistochemistry staining; characterization of brain tumor (localization, size, and regions).

[3] = test system: human non-small cell lung cancer cell line H841; experiment: Cell growth of NSCLC cell lines; format: cell-based; conditions: cell growth rate from number of live cells
Procedure: Rat glioblastoma cell lines C6 (A) and human non-small cell lung cancer cell line H841 (B) were grown in the proper medium and treated with different concentration of drug candidate AG-1031 (P) and AG-1503 (#3). Cell growth rate was calculated based on the number of live cells as compared to concentration in M of selected small molecules of the invention (see FIGS. 6A and 6B).

[4] = test system: Glioma cells; experiment: Cell viability assay in glioma cells versus TMZ and Carmustine; format: cell-based, human; conditions: 48 hours treatment
Procedure: as §1, §2

In the case of `C=CC1=C(C)c2cc3[nH]c(cc4nc(cc5[nH]c(cc1n2)c(C)c5C=C)C(C)=C4CCC(=O)O)c(CCC(=O)NCCCc1ccccc1)c3C` [AG-1601, 3-(2,8,13,18-tetramethyl-3-(3-oxo-3-((3-phenylpropyl)amino)propyl)-12,17-divinylporphyrin-7-yl)propanoic acid], the “potentiation of the effect of TMZ” value [1] is reported as “potentiates the effect of TMZ”, the body weights ([2]; Glioma vs Glioma+AG1601, 2 weeks) is reported as “significant difference was found between them” and the tumor volumes ([2]; Glioma+AG1601 vs Glioma group) is reported as “reduced”. For the same compound, the tumor weights ([2]; Glioma+AG1601 vs Glioma group) was “reduced”, the body weights ([2]; Sham vs Sham+AG1601, 2 weeks) was “without significant difference” and the survival time ([2]; glioma rats treated vs without treatment) was “longer”. The glioma growth ([2]; i.v. once a day for 6 days) was “could suppress glioma growth”, the “efficacy on C6 xenograft tumor” value ([2]; rat model) was “shows efficacy” and the “inhibition of growth of NSCLC cell lines” value [3] was “inhibiting growth of some NSCLC cell lines”. The “efficacy on glioma cells compared with TMZ and Carmustine” value [4] was “better efficacy on Glioma cells in vitro than TMZ and Carmustine”.
